Target: MTH1 (Homo sapiens, UniProt P36639)
Assay: MTH1 enzymatic assay and IC50 value determination (malachite green, 96- and 384-well format)
Type: biochemical
Conditions: hydrolysis of dGTP (100 μM), MTH1 6 nM, pyrophosphatase-coupled malachite green, 15 minutes at 22° C.
Protocol: MTH1 Enzymatic Assay and IC50 Value Determination
MTH1 catalyzes the hydrolysis of dGTP to dGMP and PPi. By coupling the reaction to pyrophosphatase added in excess PPi is converted to Pi that can be detected by using the malachite green assay reagent. Two different formats were used for IC50 determinations in the enzymatic assay, 96- and 384-well format. 96-Well Method:
Briefly, the compound to be analyzed is diluted in DMSO in a 1:3 dilution series generating 12 different compound concentrations giving a final DMSO concentration of 1% in the assay well. MTH1 diluted in assay buffer (100 mM Tris-acetate, 40 mM NaCl, 10 mM magnesium acetate, 1 mM DTT and 0.005% Tween 20) fortified with E. coli pyrophosphatase (0.2 U/ml) is added to a final concentration of 6 nM. dGTP diluted in assay buffer is added to a final concentration of 100 μM. The reaction mixture is incubated for 15 minutes at 22° C. To 100 μl reaction mixture, 25 μl Malachite green assay regent (0.095% Malachite green in 17% H2SO4, 1.5% Ammonium molybdate, 0.17% Tween 20) is added, followed by incubation with shaking for 15 minutes at 22° C. The absorbance of the assay plate is read at 630 nm using a Hidex Sense Multilabel plate reader. The IC50 value is determined by fitting a dose response curve to the data points using nonlinear regression analysis and the equation Y=Bottom+(Top−Bottom)/(1+10^((Log IC50−X)*HillSlope)), where Y is the read absorbance at 630 nm and X is log [compound].
The compounds to be tested are nano-dispensed, in 11 concentrations, directly in assay plates, with a final DMSO concentration <1%. The protocol and the reaction mixture are the same as for the 96-well assay, with a total reaction volume of 50 μl/well to which 10 μl of Malachite green reagent is added. All additions to the assay plates are made with multidrop.

IC50 | Structure (SMILES)
< 200 nM | Cc1c(Cl)cccc1-c1cc(NCCc2ccc(S(C)(=O)=O)cc2)nc(N)n1 [Example 1, 6-(3-chloro-2-methylphenyl)-4-N-[2-(4-methanesulfonylphenyl)ethyl]pyrimidine-2,4-diamine]
< 200 nM | Cc1cccc(-c2cc(NCCNc3ccc(S(C)(=O)=O)nc3)nc(N)n2)c1C [Example 13, 6-(2,3-dimethylphenyl)-4-N-{2-[(6-methanesulfonylpyridin-3-yl)amino]ethyl}pyrimidine-2,4-diamine]
< 200 nM | Cc1c(Cl)cccc1-c1cc(NCCNc2ccc(C(N)=O)cn2)nc(N)n1 [Example 147]
< 200 nM | Cc1c(Cl)cccc1-c1cc(NCCc2ccc(C(N)=O)cc2F)nc(N)n1 [Example 162, 4-[2-[[2-amino-6-(3-chloro-2-methyl-phenyl)pyrimidin-4-yl]amino]ethyl]-3-fluoro-benzamide]
< 200 nM | Cc1c(Cl)cccc1-c1cc(NCCc2cccc(NC(=N)N)c2)nc(N)n1 [Example 179, 1-[3-[2-[[2-amino-6-(3-chloro-2-methyl-phenyl)pyrimidin-4-yl]amino]ethyl]phenyl]guanidine]
< 200 nM | Cc1c(Cl)cccc1-c1cc(NCC#CCSc2cccc(C(=O)O)c2)nc(N)n1 [Example 193]
< 200 nM | Cc1c(-c2cc(NCCc3ccc(S(N)(=O)=O)cc3)nc(N)n2)cccc1C(F)(F)F [Example 197, 4-[2-({2-amino-6-[2-methyl-3-(trifluoromethyl)phenyl]pyrimidin-4-yl}amino)ethyl]benzene-1-sulfonamide]
< 200 nM | Cc1c(Cl)cccc1-c1cc(NCCOc2ccc(-c3nn[nH]n3)cc2)nc(N)n1 [Example 202, 6-(3-chloro-2-methylphenyl)-N4-{2-[4-(2H-1,2,3,4-tetrazol-5-yl)phenoxy]ethyl}pyrimidine-2,4-diamine]
< 200 nM | Cc1c(Cl)cccc1-c1cc(NCC(O)c2ccc(S(C)(=O)=O)cc2)nc(N)n1 (stereo not drawn) [Example 215, 2-(2-amino-6-(3-chloro-2-methylphenyl)pyrimidin-4-ylamino)-1-(4-(methylsulfonyl)phenyl)ethanol]
< 200 nM | Cc1c(Cl)cccc1-c1cc(NCC(O)c2ccc(S(N)(=O)=O)cc2)nc(N)n1 (stereo not drawn) [Example 216, 4-(2-(2-Amino-6-(3-chloro-2-methylphenyl)pyrimidin-4-ylamino)-1-hydroxyethyl)benzenesulfonamide]
< 200 nM | CS(=O)(=O)c1ccc(CCNc2cc(-c3cccc(Cl)c3CO)nc(N)n2)cc1 [Example 217, (2-(2-Amino-6-(4-(methylsulfonyl)phenethylamino)pyrimidin-4-yl)-6-chlorophenyl)methanol]
< 200 nM | Nc1nc(NCCc2ccc(S(N)(=O)=O)cc2)cc(-c2cccc(Cl)c2CO)n1 [Example 218, 4-(2-(2-Amino-6-(3-chloro-2-(hydroxymethyl)phenyl)pyrimidin-4-ylamino)ethyl)benzenesulfonamide]

Second part, the compound before the results:

Structure (SMILES) | IC50
Cc1cccc(-c2cc(NCCCNc3ccc(S(N)(=O)=O)cn3)nc(N)n2)c1C [Example 2, 6-[(3-{[2-amino-6-(2,3-dimethylphenyl)pyrimidin-4-yl]amino}propyl)amino]pyridine-3-sulfonamide] | < 200 nM
CNS(=O)(=O)c1ccc(NCCNc2cc(-c3cccc(C)c3C)nc(N)n2)nc1 [Example 3, 6-[(2-{[2-amino-6-(2,3-dimethylphenyl)pyrimidin-4-yl]amino}ethyl)amino]-N-methylpyridine-3-sulfonamide] | < 200 nM
CC(C)(C)OC(=O)N1CC=C(c2cc(NCCc3ccc(S(N)(=O)=O)cc3)nc(N)n2)CC1 [Example 131, tert-butyl 4-(2-amino-6-{[2-(4-sulfamoylphenyl)ethyl]amino}pyrimidin-4-yl)-1,2,3,6-tetrahydropyridine-1-carboxylate] | < 200 nM
Nc1nc(NCCc2ccc(S(N)(=O)=O)cc2)cc(C2=CCCCCC2)n1 [Example 132, 4-(2-{[2-amino-6-(cyclohept-1-en-1-yl)pyrimidin-4-yl]amino}ethyl)benzene-1-sulfonamide] | < 200 nM
Nc1nc(NCCc2ccc(S(N)(=O)=O)cc2)cc(C2CCCCCC2)n1 [Example 134, 4-{2-[(2-amino-6-cycloheptylpyrimidin-4-yl)amino]ethyl}benzene-1-sulfonamide] | < 200 nM
CC(=O)N1CC=C(c2cc(NCCc3ccc(S(N)(=O)=O)cc3)nc(N)n2)CC1 [Example 135, 4-(2-{[6-(1-acetyl-1,2,3,6-tetrahydropyridin-4-yl)-2-aminopyrimidin-4-yl]amino}ethyl)benzene-1-sulfonamide] | < 200 nM
CC(C)C(=O)N1CC=C(c2cc(NCCc3ccc(S(N)(=O)=O)cc3)nc(N)n2)CC1 [Example 136, 4-[2-({2-amino-6-[1-(2-methylpropanoyl)-1,2,3,6-tetrahydropyridin-4-yl]pyrimidin-4-yl}amino)ethyl]benzene-1-sulfonamide] | < 200 nM
CS(=O)(=O)N1CC=C(c2cc(NCCc3ccc(S(N)(=O)=O)cc3)nc(N)n2)CC1 [Example 137, 4-(2-{[2-amino-6-(1-methanesulfonyl-1,2,3,6-tetrahydropyridin-4-yl)pyrimidin-4-yl]amino}ethyl)benzene-1-sulfonamide] | < 200 nM
Nc1nc(NCCc2ccc(S(N)(=O)=O)cc2)cc(C2=CCN(C(=O)c3ccno3)CC2)n1 [Example 138, 4-[2-({2-amino-6-[1-(1,2-oxazole-5-carbonyl)-1,2,3,6-tetrahydropyridin-4-yl]pyrimidin-4-yl}amino)ethyl]benzene-1-sulfonamide] | < 200 nM
Nc1nc(NCCc2ccc(S(N)(=O)=O)cc2)cc(C2=CCN(C(=O)C3CCCC3)CC2)n1 [Example 139, 4-(2-{[2-amino-6-(1-cyclopentanecarbonyl-1,2,3,6-tetrahydropyridin-4-yl)pyrimidin-4-yl]amino}ethyl)benzene-1-sulfonamide] | < 200 nM
Nc1nc(NCCc2ccc(S(N)(=O)=O)cc2)cc(C2=CCN(C(=O)CC3CCCC3)CC2)n1 [Example 140, 4-[2-({2-amino-6-[1-(2-cyclopentylacetyl)-1,2,3,6-tetrahydropyridin-4-yl]pyrimidin-4-yl}amino)ethyl]benzene-1-sulfonamide] | < 200 nM
Cc1ccc(C(=O)N2CC=C(c3cc(NCCc4ccc(S(N)(=O)=O)cc4)nc(N)n3)CC2)cc1 [Example 141, 4-[2-({2-amino-6-[1-(4-methylbenzoyl)-1,2,3,6-tetrahydropyridin-4-yl]pyrimidin-4-yl}amino)ethyl]benzene-1-sulfonamide] | < 200 nM
Cc1c(Cl)cccc1-c1cc(NCCNc2ccc(NC(=O)NC(C)(C)C)cn2)nc(N)n1 [Example 156, 1-[6-[2-[[2-amino-6-(3-chloro-2-methyl-phenyl)pyrimidin-4-yl]amino]ethylamino]-3-pyridyl]-3-tert-butyl-urea] | < 200 nM
Cc1c(Cl)cccc1-c1cc(NCCNc2ccc(NC(=O)OC(C)(C)C)cn2)nc(N)n1 [Example 157, tert-butyl N-[6-[2-[[2-amino-6-(3-chloro-2-methyl-phenyl)pyrimidin-4-yl]amino]ethylamino]-3-pyridyl]carbamate] | < 200 nM
Cc1c(Cl)cccc1-c1cc(NCCNc2nc(N)nc(N)n2)nc(N)n1 [Example 158, N2-[2-[[2-amino-6-(3-chloro-2-methyl-phenyl)pyrimidin-4-yl]amino]ethyl]-1,3,5-triazine-2,4,6-triamine] | < 200 nM
Cc1c(Cl)cccc1-c1cc(NCCSCc2ccc(CN(C)C)o2)nc(N)n1 [Example 175, 6-(3-chloro-2-methyl-phenyl)-N4-[2-[[5-[(dimethylamino)methyl]-2-furyl]methylsulfanyl]ethyl]pyrimidine-2,4-diamine] | < 200 nM
Cc1c(Cl)cccc1-c1cc(NCCOc2ccc(C(F)(F)F)cn2)nc(N)n1 [Example 199, 6-(3-chloro-2-methylphenyl)-N4-(2-{[5-(trifluoromethyl)pyridin-2-yl]oxy}ethyl)pyrimidine-2,4-diamine] | < 200 nM

System: cancer cell
Assay: Cell viability assay (resazurin)
Type: cell-based
Conditions: 72 h; 3 days with compound, resazurin fluorescence; cell line not named
Protocol: The utility of the compounds of the present invention can be illustrated, for example, by their activity in vitro in the cancer cell clonogenic and/or viability assay described below. The link between activity in tumor cell clonogenic assay and anti-tumor activity in the clinical setting has been well established in the art (e.g. see ref Silverstini et al Stem Cells 1993, 11(6), 258-35).
Cells are seeded into 96 well plates (1000-3000 cells/well) in DMEM GlutaMAX™ or other suitable media dependent on cell line and incubated overnight in 5% CO2, 37° C. Thereafter cells are treated with compound or vehicle and left in incubator for 3 days until staining with resazurin. Cells are incubated in resazurin (diluted in suitable media) at 37° C. for 2 hours before measuring the fluorescence (Ex544/Em590).
The compounds to be tested are nano-dispensed in 11 concentrations, directly in 384-well cell plates, with a final DMSO concentration <1%. Cells are seeded in cell plates, pre-dispensed with compounds, 50 μl/well (600-1200 cells/well). After 3 days culture in 5% CO2, 37° C., resazurin diluted in PBS is added, 10 μl/well, and cells are incubated 3 hours before measuring fluorescence (Ex544/Em590).

IC50 | Structure (SMILES)
< 500 nM | Cc1c(Cl)cccc1-c1cc(NCCc2ccc(S(C)(=O)=O)cc2)nc(N)n1 [Example 1, 6-(3-chloro-2-methylphenyl)-4-N-[2-(4-methanesulfonylphenyl)ethyl]pyrimidine-2,4-diamine]
< 500 nM | Cc1cccc(-c2cc(NCCNc3ccc(S(C)(=O)=O)nc3)nc(N)n2)c1C [Example 13, 6-(2,3-dimethylphenyl)-4-N-{2-[(6-methanesulfonylpyridin-3-yl)amino]ethyl}pyrimidine-2,4-diamine]

The next lines start with the compound.

Structure (SMILES) | IC50
Cc1cccc(-c2cc(NCCCNc3ccc(S(N)(=O)=O)cn3)nc(N)n2)c1C [Example 2, 6-[(3-{[2-amino-6-(2,3-dimethylphenyl)pyrimidin-4-yl]amino}propyl)amino]pyridine-3-sulfonamide] | < 500 nM
CNS(=O)(=O)c1ccc(NCCNc2cc(-c3cccc(C)c3C)nc(N)n2)nc1 [Example 3, 6-[(2-{[2-amino-6-(2,3-dimethylphenyl)pyrimidin-4-yl]amino}ethyl)amino]-N-methylpyridine-3-sulfonamide] | < 500 nM

— patent US10179790B2 (THOMAS HELLEDAYS STIFTELSE FOR MEDICINSK FORSKNING, priority 2014, dated 2019)
